Experiment [1] concerns the target human NCX1 (Homo sapiens (Human), UniProt P32418). Put plainly: Inhibition of Ca2+ influx into cells (NCX1 reverse mode), FLIPR Fluo-4 assay. The note with it: inhibition of NCX1 in reverse mode (Ca2+ influx into cells); read-out: NCX1rv IC50. The experiment is classed as cell-based. The source says:
The sodium/calcium exchanger NCX1 can transport calcium ions and sodium ions through the cell membrane. The transport is an exchange of Ca^2+and Na^+in two directions depending on membrane potential and ion gradients. At the first direction, named “forward mode” or “calcium export mode”, Ca^2+is transported out of the cell and Na^+ is transported into the cell. At the other direction, named “reverse mode” or “calcium import mode”, the transport directions are vice versa. The effect of the compounds of the invention on NCX1 was determined in CHO cells stably expressing human NCX1 (gene symbol SLC8A1; cf. WO 2009/115238). The assay is based on the monitoring of intracellular Ca^2+concentrations using a calcium-sensitive fluorescence dye which is detected by means of a FLIPR device (Fluorimetric Imaging Plate Reader, Molecular Devices).
Assay Technology—Reverse Mode
The assay is based on the monitoring of intracellular Ca^2+concentrations using the calcium-sensitive dye Fluo-4. CHO cells expressing NCX1 were loaded with the dye by means of the acetoxymethyl ester Fluo-4 AM (Invitrogen, F14202), which is cleaved intracellularly by esterase activity to yield the charged species of free Fluo-4. After an preincubation period with the test compound, Gramicidine (Sigma, G5002) was added. Gramicidine is an ionophor for Na^+ions mediating an increase of intracellular Na^+ions. Consequently, intracellular Na^+ions are exchanged against extracellular Ca^2+ions (Ca^2+influx, reverse mode). The intracellular elevation of Ca^2+ ions was detected by measuring the fluorescence of Fluo-4 at a wavelength of 520 nm by a FLIPR device.
Briefly, for the reverse mode transport assay 18000 cells per well were seeded into a 96 well microplate (Corning COSTAR 3904) and incubated overnight in culture medium (1× Nut Mix F12 (Ham) (Gibco, 21765-029); 10% (v/v) fetal calf serum (PAA Gold, A15-649); 450 μg/ml Geneticin (Gibco, 10131-027)). A total volume of 100 μl medium per well was used. For the preparation of the FLIPR assay, the culture medium was removed from the plates and 100 μl of dye solution (2 μM Fluo-4 AM; 0.02% (v/v) Pluronic F-127 (20%, Invitrogen, P3000MP); 0.1% (v/v) bovine albumin solution (30% (v/v), Sigma, A9205) in assay buffer (133.8 mM NaCl (Sigma, S5886); 4.7 mM KCl (Sigma, P3911); 1.25 mM MgCl2 (Merck, 1.05833.0250); 3.5 mM CaCl2 (Merck, 1.02083.0250); 5 mM glucose (Sigma, G7021); 10 mM Hepes (Sigma, H4034); 0.01% (v/v) Pluronic F-127 (5%, Sigma, P2443); 2.5 mM Probenecid (Maybridge, SB00915EB); pH 7.4)) were added into each well. The plates were incubated in the dark at room temperature for 80 min. After the incubation period, the dye solution was removed and the wells were washed with 100 μl of assay buffer. Then 80 μl of a solution of the test compound in assay buffer in different concentrations were added into the wells. The plates were incubated at 16° C. for 45 min. Meanwhile a 60 μM solution of Gramicidine in assay buffer (4° C.) was prepared and stored in the wells of a 96 well microplate (96 well microplate, polypropylene, U-shape (Greiner Bio-One, 650201)) at 4° C. until measurement was started. The fluorescence monitoring was performed at 240 measuring points with measurement intervals of 2 sec. After the fifth measuring point, 40 μl of the Gramicidine solution were added to each well of the assay plates to give a final Gramicidine concentration of 20 μM. For the determination of the IC50 values the minimal fluorescence value was subtracted from the maximal fluorescence value for all measuring points. The calculation of the IC50 values via the percentage inhibitions of Ca^2+influx into cells (reverse mode) effected by the test compound was performed in Biost@t Speed 2.0.

Experiment [2] deals with Sprague-Dawley rats. Put plainly: In vivo method for determining the effect on heart contractility (left ventricular dp/dtmax) in anesthetized rats. Particulars: iv, rat, i.v. bolus injection, versus solvent control, read-out: Contractility increase (%). The method, then: B) In vivo Method for Determining the Effect on Heart Contractility Adult male Sprague-Dawley rats (Harlan […], Germany) weighing 340 to 370 g were anesthetized with pentobarbital (100 mg/kg i.p.) and ventilated with a mixture of oxygen (40%) and room air (60%) at a tidal volume of 1 ml/100 g at 60 breaths/min. Body temperature was maintained at 36.5±0.3° C. with a heating lamp and was monitored with a rectal thermo sensor. Systemic blood pressure was measured in the left carotid artery using a pressure transducer (Combitrans; B. Braun Melsungen AG, Melsungen, Germany) connected to a DC-bridge-amplifier (PLUGSYS/ADC Type 663; Harvard Apparatus GmbH, March-Hugstetten, Germany). The electrocardiogram was measured as lead II via subcutaneously placed electrodes connected to a Heart-Rate-Module ([…] Type 669; Harvard Apparatus GmbH, March-Hugstetten, Germany). A micro-tip catheter (2 French, SPR-320; Millar Instruments, Houston, Tex., USA) was placed via the right carotid artery into the left ventricle, and the left ventricular pressure (LVP) and the end diastolic pressure (EDP) were continuously measured. Registration of the hemodynamic data was performed via an analog digital converter by a personal computer using Notocord software (HEM version 3.5). Left ventricular contractility (dp/dtmax) and relaxation (dp/dtmin) were calculated from the LVP signal. For intravenous administration of the test compounds, the left jugular vein was prepared and a PP-50 catheter was inserted. Test compounds were administered either by intravenous bolus injection or by intravenous infusion by means of an infusion pump (Unita; B. Braun Melsungen AG, Melsungen, Germany). […] In a typical experiment, several dosages of the test compound were administered subsequently at increasing doses. Statistical significance of the data obtained with drug vs control experiments, in which solvent was administered, was evaluated with the 2-sided ANOVA test (program Everstat). Increases in left ventricular contractility (percent increase) by example compounds are given in Table 3 in comparison to control experiments in which solvent was administered.

The values that follow come from patent US8912224B2, “Substituted 2-(chroman-6-yloxy)-thiazoles and their use as pharmaceuticals” (Sanofi, priority 2011, dated 2014).

Structures are written as SMILES.

Chain of human NCX1 (P32418 whole entry, looked up): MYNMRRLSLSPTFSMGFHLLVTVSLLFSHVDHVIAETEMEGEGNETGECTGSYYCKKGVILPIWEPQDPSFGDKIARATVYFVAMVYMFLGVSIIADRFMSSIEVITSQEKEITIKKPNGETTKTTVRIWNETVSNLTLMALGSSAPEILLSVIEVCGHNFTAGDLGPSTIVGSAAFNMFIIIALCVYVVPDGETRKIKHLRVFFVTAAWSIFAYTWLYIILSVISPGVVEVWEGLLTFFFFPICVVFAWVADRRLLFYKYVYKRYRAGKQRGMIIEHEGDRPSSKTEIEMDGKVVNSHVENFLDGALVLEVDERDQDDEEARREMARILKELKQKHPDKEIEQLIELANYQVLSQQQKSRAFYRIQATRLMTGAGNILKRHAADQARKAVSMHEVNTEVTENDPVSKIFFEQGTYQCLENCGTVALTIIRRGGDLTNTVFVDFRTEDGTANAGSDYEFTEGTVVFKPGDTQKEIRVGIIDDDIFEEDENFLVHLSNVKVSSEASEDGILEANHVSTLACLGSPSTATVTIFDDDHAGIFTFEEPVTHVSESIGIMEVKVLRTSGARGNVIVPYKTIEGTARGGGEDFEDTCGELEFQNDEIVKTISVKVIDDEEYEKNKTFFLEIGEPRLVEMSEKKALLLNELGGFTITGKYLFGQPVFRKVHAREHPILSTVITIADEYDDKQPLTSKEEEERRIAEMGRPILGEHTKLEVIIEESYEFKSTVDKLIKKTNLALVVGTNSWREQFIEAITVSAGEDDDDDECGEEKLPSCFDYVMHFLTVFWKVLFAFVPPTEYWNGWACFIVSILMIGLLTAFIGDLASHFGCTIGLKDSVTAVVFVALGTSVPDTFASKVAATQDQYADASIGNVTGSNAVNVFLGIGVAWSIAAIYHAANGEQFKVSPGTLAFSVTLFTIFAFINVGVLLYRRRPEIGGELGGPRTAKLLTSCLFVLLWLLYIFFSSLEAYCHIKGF

For `CCCNC(=O)c1cnc(Oc2ccc3c(c2)CCC(c2ccccc2C)O3)s1` (stereo not drawn) [Example 330, 2-(2-o-Tolyl-chroman-6-yloxy)-thiazole-5-carboxylic acid propylamide], the IC50 (in general, the concentration that inhibits the measured activity by half) in experiment [1] came to 300 nM. Further, in experiment [2], the change in vivo at 0.1 mg/kg is 50%, the change in vivo at 0.3 mg/kg was 86% and the change in vivo at 1 mg/kg amounted to 161%.
As for `Cc1ccccc1C1CCc2cc(Oc3nc(C)c(C(=O)NCc4ccno4)s3)ccc2O1` (stereo not drawn) [Example 334, 4-Methyl-2-(2-o-tolyl-chroman-6-yloxy)-thiazole-5-carboxylic acid (isoxazol-5-ylmethyl)-amide], in experiment [1], the half-maximal inhibitory concentration (IC50) came to 500 nM. For the same compound, in experiment [2], the change in vivo at 0.1 mg/kg amounted to 19%, the change in vivo at 0.3 mg/kg worked out at 41% and the change in vivo at 1 mg/kg came out at 59%.
For `Cc1ccccc1[C@@H]1CCc2cc(Oc3ncc(C(=O)NCCO)s3)ccc2O1` [Example 326, 2-((S)-2-o-Tolyl-chroman-6-yloxy)-thiazole-5-carboxylic acid (2-hydroxy-ethyl)-amide], in that order: 100 nM, 67%, 105% and 138%.
For the compound `Cc1ccccc1C1CCc2cc(Oc3ncc(CNC(=O)CN4CCCC4=O)s3)ccc2O1` (stereo not drawn) [Example 327, 2-(2-Oxo-pyrrolidin-1-yl)-N-[2-(2-o-tolyl-chroman-6-yloxy)-thiazol-5-ylmethyl]-acetamide], the IC50 in experiment [1] is 500 nM. In addition, in experiment [2], the change in vivo at 0.1 mg/kg was 9%, the change in vivo at 0.3 mg/kg came out at 27% and the change in vivo at 1 mg/kg was 55%.
For `Cc1ccc(F)cc1C1CCc2cc(Oc3ncc(C(=O)NCCO)s3)ccc2O1` (stereo not drawn) [Example 342, 2-[2-(5-Fluoro-2-methyl-phenyl)-chroman-6-yloxy]-thiazole-5-carboxylic acid (2-hydroxy-ethyl)-amide], the IC50 in experiment [1] was determined as 400 nM. In experiment [2], the change in vivo at 0.1 mg/kg stood at 38%, the change in vivo at 0.3 mg/kg turned out to be 73% and the change in vivo at 1 mg/kg was found to be 146%.
For `CCCNC(=O)c1cnc(Oc2ccc3c(c2)CCC(c2cc(F)ccc2C)O3)s1` (stereo not drawn) [Example 343, 2-[2-(5-Fluoro-2-methyl-phenyl)-chroman-6-yloxy]-thiazole-5-carboxylic acid propylamide], the IC50 in experiment [1] was found to be 500 nM. Besides, in experiment [2], the change in vivo at 0.1 mg/kg was found to be 20%, the change in vivo at 0.3 mg/kg was found to be 25% and the change in vivo at 1 mg/kg came out at 39%.
